Laboratory results as given in patent EP4745137A1 (Gluetacs Therapeutics (Shanghai) Co., Ltd., priority 2023, dated 2025).

How the values were obtained:
WEE1 = biological target: T1, WEE1 (Homo sapiens, UniProt P30291+Q96SW2); experiment: Western-blot assay of substrate protein degradation in hPBMCs, WEE1; format: cell-based; conditions: 24 hours of compound treatment
T1 construct: endogenous in cells; host or cells: hPBMCs (Milecell Biotechnologies)

IKZF1 = biological target: T2, IKZF1 (Homo sapiens, UniProt Q13422+Q96SW2); experiment: Western-blot assay of substrate protein degradation in hPBMCs, IKZF1; format: cell-based; conditions: 24 hours of compound treatment
T2 construct: endogenous in cells; host or cells: hPBMCs (Milecell Biotechnologies)
T2 sequence (Q13422 whole entry): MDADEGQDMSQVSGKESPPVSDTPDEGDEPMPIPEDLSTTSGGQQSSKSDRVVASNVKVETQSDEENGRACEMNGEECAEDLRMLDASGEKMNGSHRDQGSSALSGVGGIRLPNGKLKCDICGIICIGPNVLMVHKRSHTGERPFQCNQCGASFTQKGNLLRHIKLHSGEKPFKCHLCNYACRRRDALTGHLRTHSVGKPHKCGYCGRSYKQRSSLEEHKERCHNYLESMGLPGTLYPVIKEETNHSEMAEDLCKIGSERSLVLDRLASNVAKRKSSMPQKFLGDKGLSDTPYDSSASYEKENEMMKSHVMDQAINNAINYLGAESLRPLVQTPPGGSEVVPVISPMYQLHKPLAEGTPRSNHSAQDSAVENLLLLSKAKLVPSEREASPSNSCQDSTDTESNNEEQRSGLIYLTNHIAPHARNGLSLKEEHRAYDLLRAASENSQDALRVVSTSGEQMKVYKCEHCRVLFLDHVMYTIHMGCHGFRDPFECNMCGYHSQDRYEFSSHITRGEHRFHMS
T2 sequence (Q96SW2 whole entry): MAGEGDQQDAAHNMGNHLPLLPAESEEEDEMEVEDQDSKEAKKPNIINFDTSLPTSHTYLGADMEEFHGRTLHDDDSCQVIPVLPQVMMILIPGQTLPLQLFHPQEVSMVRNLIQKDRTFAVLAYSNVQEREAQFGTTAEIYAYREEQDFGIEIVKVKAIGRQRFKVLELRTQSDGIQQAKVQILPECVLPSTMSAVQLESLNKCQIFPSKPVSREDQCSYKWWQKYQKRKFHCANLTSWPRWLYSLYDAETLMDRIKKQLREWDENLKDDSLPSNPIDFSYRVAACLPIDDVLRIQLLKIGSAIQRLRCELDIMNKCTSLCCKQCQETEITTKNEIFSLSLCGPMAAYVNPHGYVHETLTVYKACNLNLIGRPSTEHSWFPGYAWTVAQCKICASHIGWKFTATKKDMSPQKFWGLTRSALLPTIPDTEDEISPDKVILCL
T2 sequence (Q16531 whole entry partner): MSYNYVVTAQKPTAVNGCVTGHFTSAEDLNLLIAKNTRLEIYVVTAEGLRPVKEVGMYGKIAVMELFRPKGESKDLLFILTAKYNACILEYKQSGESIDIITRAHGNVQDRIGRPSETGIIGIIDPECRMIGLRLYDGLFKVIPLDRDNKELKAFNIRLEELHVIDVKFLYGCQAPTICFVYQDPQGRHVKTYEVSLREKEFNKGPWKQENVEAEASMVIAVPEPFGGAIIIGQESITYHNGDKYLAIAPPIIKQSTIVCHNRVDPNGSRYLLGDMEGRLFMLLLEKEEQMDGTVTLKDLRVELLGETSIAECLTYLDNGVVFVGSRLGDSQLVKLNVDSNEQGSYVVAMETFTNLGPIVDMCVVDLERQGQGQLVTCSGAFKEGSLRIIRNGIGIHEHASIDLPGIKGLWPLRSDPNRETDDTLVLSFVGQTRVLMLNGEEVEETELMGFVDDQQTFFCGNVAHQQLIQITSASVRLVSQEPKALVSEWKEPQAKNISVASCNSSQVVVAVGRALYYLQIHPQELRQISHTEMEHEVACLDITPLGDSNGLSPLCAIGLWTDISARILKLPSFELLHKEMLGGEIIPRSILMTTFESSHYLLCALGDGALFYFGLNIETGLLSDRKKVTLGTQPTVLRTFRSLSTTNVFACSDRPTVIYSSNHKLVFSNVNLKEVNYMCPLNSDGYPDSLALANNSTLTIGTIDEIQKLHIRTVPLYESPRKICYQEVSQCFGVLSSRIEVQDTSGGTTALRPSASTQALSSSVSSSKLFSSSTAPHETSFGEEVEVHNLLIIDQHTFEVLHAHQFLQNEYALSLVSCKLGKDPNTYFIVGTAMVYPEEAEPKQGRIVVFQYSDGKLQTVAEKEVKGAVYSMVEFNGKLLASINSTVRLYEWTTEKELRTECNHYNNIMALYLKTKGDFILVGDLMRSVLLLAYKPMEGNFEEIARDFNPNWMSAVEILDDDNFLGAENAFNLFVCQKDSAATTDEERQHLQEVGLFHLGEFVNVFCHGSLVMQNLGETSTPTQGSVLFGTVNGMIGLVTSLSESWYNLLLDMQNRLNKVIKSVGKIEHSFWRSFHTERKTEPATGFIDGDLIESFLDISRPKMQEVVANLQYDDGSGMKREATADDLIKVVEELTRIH

IKZF2 = biological target: T3, IKZF2 (Homo sapiens, UniProt Q96SW2+Q9UKS7); experiment: Western-blot assay of substrate protein degradation in hPBMCs, IKZF2; format: cell-based; conditions: 24 hours of compound treatment
T3 construct: endogenous in cells; host or cells: hPBMCs (Milecell Biotechnologies)
T3 sequence (Q9UKS7 whole entry): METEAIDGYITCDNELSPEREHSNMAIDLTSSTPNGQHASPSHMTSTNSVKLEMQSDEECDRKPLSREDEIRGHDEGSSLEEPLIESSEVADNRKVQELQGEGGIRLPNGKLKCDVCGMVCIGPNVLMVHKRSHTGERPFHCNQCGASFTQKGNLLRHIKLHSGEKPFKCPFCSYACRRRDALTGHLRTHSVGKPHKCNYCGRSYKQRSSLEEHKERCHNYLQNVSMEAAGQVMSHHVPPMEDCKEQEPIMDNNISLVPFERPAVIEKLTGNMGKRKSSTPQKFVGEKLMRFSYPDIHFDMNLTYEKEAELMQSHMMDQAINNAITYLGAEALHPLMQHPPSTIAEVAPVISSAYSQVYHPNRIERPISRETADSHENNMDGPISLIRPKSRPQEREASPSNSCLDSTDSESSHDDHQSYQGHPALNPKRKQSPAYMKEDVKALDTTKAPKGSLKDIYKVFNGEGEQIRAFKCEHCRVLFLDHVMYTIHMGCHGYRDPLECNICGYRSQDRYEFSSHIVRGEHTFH
T3 sequence (Q96SW2 whole entry): as the sequence (Q96SW2 whole entry) above
T3 sequence (Q16531 whole entry partner): as the sequence (Q16531 whole entry partner) above

IKZF3 = biological target: T4, IKZF3 (Homo sapiens, UniProt Q96SW2+Q9UKT9); experiment: Western-blot assay of substrate protein degradation in hPBMCs, IKZF3; format: cell-based; conditions: 24 hours of compound treatment
T4 construct: endogenous in cells; host or cells: hPBMCs (Milecell Biotechnologies)

CK1α = biological target: T5, CK1α (Homo sapiens, UniProt P48729+Q96SW2); experiment: Western-blot assay of substrate protein degradation in hPBMCs, CK1α; format: cell-based; conditions: 24 hours of compound treatment
T5 construct: endogenous in cells; host or cells: hPBMCs (Milecell Biotechnologies)
T5 sequence (P48729 whole entry): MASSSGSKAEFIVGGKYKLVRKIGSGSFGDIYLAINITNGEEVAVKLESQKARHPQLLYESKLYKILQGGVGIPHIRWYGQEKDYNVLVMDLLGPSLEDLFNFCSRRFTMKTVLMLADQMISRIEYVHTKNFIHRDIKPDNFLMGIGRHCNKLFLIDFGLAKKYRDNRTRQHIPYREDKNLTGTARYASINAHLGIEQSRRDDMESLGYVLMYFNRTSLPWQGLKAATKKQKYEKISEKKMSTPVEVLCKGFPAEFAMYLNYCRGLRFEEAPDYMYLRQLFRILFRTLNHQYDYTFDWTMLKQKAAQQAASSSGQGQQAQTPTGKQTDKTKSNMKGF
T5 sequence (Q96SW2 whole entry): as the sequence (Q96SW2 whole entry) above
T5 sequence (Q16531 whole entry partner): as the sequence (Q16531 whole entry partner) above

GSPT1 = biological target: T6, GSPT1 (Homo sapiens, UniProt P15170+Q96SW2); experiment: Western-blot assay of substrate protein degradation in hPBMCs, GSPT1; format: cell-based; conditions: 24 hours of compound treatment
T6 construct: endogenous in cells; host or cells: hPBMCs (Milecell Biotechnologies)
T6 sequence (P15170 whole entry): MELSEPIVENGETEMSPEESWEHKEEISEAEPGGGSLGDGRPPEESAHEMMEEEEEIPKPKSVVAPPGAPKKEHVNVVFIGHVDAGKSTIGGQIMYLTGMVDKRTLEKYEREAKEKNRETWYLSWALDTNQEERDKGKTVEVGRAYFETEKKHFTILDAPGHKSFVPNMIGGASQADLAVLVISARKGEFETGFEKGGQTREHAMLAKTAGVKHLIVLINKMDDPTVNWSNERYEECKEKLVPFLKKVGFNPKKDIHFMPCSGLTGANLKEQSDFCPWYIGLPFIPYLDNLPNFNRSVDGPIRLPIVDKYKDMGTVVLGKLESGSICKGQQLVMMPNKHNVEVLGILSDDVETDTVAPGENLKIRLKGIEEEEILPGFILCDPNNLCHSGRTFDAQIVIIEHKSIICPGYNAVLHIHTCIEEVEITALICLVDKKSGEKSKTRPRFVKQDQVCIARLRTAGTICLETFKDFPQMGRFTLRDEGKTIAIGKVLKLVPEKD
T6 sequence (Q96SW2 whole entry): as the sequence (Q96SW2 whole entry) above
T6 sequence (Q16531 whole entry partner): as the sequence (Q16531 whole entry partner) above

[1] = biological target: T7, human Cereblon WT GST-tagged protein (Homo sapiens, UniProt Q96SW2); experiment: CRBN-binding affinity by HTRF (CEREBLON BINDING kit); conditions: HTRF inhibitory activity, CEREBLON BINDING kit; read-out: HTRF IC50
T7 construct: purchased CISBIO 64BDCRBNPEH
T7 sequence (Q96SW2 whole entry): as the sequence (Q96SW2 whole entry) above

[2] = compounds tested at 50 nM and 500 nM (concentration of the table not stated)
[3] = 50 nM and 500 nM tested (concentration behind the class not stated)

T1 sequence (P30291 whole entry): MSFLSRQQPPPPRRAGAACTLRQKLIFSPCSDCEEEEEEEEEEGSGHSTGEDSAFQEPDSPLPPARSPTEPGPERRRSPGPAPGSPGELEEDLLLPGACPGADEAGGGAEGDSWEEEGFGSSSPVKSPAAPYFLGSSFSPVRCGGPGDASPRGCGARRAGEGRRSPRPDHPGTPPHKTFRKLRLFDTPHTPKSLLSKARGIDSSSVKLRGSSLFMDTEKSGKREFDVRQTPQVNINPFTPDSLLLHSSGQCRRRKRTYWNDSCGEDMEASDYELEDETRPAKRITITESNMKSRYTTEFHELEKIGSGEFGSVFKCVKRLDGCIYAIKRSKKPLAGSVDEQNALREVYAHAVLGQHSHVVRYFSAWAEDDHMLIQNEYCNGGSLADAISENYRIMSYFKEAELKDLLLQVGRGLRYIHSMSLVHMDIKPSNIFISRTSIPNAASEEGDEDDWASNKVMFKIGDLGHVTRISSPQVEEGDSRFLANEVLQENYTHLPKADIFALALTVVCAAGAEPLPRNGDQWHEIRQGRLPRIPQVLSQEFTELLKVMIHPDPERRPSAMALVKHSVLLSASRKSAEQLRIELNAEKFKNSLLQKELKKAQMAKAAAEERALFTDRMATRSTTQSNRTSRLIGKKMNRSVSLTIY
T1 sequence (Q96SW2 whole entry): as the sequence (Q96SW2 whole entry) above
T1 sequence (Q16531 whole entry partner): as the sequence (Q16531 whole entry partner) above

SMILES	Weel substrate protein remaining % (WEE1; [2])	IKZF 1 substrate protein remaining % (IKZF1; [2])	IKZF2 substrate protein remaining % (IKZF2; [2])	IKZF3 substrate protein remaining % (IKZF3; [2])	CK1a substrate protein remaining % (CK1α; [2])	GSPT1 substrate protein remaining % (GSPT1; [2])	IC50 [1] [nM]	Weel substrate protein remaining % (WEE1; [3])	IKZF 1 substrate protein remaining % (IKZF1; [3])	IKZF2 substrate protein remaining % (IKZF2; [3])	IKZF3 substrate protein remaining % (IKZF3; [3])	CK1a substrate protein remaining % (CK1α; [3])	GSPT1 substrate protein remaining % (GSPT1; [3])
O=C1CCC(N2Cc3cc(CN4CCN(c5nccc(F)c5F)CC4)ccc3C2=O)C(=O)N1 (centres unmarked) [GT-04579, 3-(5-((4-(3,4-difluoropyridin-2-yl)piperazin-1-yl)methyl)-1-oxoisoindolin-2-yl)piperidine-2,6-dione]	B (80%< substrate protein remaining %≤ 100%)	B (80%< substrate protein remaining %≤ 100%)	B (80%< substrate protein remaining %≤ 100%)	B (80%< substrate protein remaining %≤ 100%)	A (0% ≤ substrate protein remaining % ≤ 80%)	B (80%< substrate protein remaining %≤ 100%)	1500 to 1900	–	–	–	–	–	–
O=C1CCC(N2Cc3cc(CN4CCN(c5ccnc(Br)c5F)CC4)ccc3C2=O)C(=O)N1 (centres unmarked) [GT-04928, 3-(5-((4-(2-bromo-3-fluoropyridin-4-yl)piperazin-1-yl)methyl)-1-oxoisoindolin-2-yl)piperidine-2,6-dione]	B (80%< substrate protein remaining %≤ 100%)	B (80%< substrate protein remaining %≤ 100%)	B (80%< substrate protein remaining %≤ 100%)	B (80%< substrate protein remaining %≤ 100%)	B (80%< substrate protein remaining %≤ 100%)	A (0% ≤ substrate protein remaining % ≤ 80%)	< 500	–	–	–	–	–	–
O=C1CCC(N2Cc3cc(CN4CCC(c5ncnc6sc7c(c56)CCC7)CC4)ccc3C2=O)C(=O)N1 (centres unmarked) [GT-04994, 3-(5-((4-(6,7-dihydro-5H-cyclopenta[4,5]thieno[2,3-d]pyrimidin-4-yl)piperidin-1-yl)methyl)-1-oxoisoindolin-2-yl)piperidine-2,6-dione]	A (0% ≤ substrate protein remaining % ≤ 80%)	A (0% ≤ substrate protein remaining % ≤ 80%)	A (0% ≤ substrate protein remaining % ≤ 80%)	A (0% ≤ substrate protein remaining % ≤ 80%)	B (80%< substrate protein remaining %≤ 100%)	B (80%< substrate protein remaining %≤ 100%)	< 500	–	–	–	–	–	–
Cc1csc2ncnc(N3CCN(Cc4ccc5c(c4)C(=O)N(C4CCC(=O)NC4=O)C5=O)CC3)c12 (centres unmarked) [GT-06304, 2-(2,6-dioxopiperidin-3-yl)-5-((4-(5-methylthieno[2,3-d]pyrimidin-4-yl)piperazin-1-yl)methyl)isoindoline-1,3-dione]	–	–	–	–	–	–	500 to 1000	B (80%< substrate protein remaining %≤ 100%)	A (0% ≤ substrate protein remaining % ≤ 80%)	A (0% ≤ substrate protein remaining % ≤ 80%)	B (80%< substrate protein remaining %≤ 100%)	B (80%< substrate protein remaining %≤ 100%)	B (80%< substrate protein remaining %≤ 100%)
Cc1ccsc1C1=CCN(Cc2cccc3c2CN(C2CCC(=O)NC2=O)C3=O)CC1 (centres unmarked) [GT-04728, 3-(4-((4-(3-methylthiophen-2-yl)-3,6-dihydropyridin-1(2H)-yl)methyl)-1-oxoisoindolin-2-yl)piperidine-2,6-dione]	B (80%< substrate protein remaining %≤ 100%)	B (80%< substrate protein remaining %≤ 100%)	B (80%< substrate protein remaining %≤ 100%)	B (80%< substrate protein remaining %≤ 100%)	B (80%< substrate protein remaining %≤ 100%)	A (0% ≤ substrate protein remaining % ≤ 80%)	1000 to 1500	–	–	–	–	–	–
Cc1nc(C2CCN(Cc3ccc4c(c3)CN(C3CCC(=O)NC3=O)C4=O)CC2)c2c(-c3ccccc3)csc2n1 (centres unmarked) [GT-05158, 3-(5-((4-(2-methyl-5-phenylthieno[2,3-d]pyrimidin-4-yl)piperidin-1-yl)methyl)-1-oxoisoindolin-2-yl)piperidine-2,6-dione]	B (80%< substrate protein remaining %≤ 100%)	B (80%< substrate protein remaining %≤ 100%)	A (0% ≤ substrate protein remaining % ≤ 80%)	A (0% ≤ substrate protein remaining % ≤ 80%)	B (80%< substrate protein remaining %≤ 100%)	A (0% ≤ substrate protein remaining % ≤ 80%)	< 500	–	–	–	–	–	–
O=C1CCC(N2Cc3cc(CN4CCc5sccc5C4)ccc3C2=O)C(=O)N1 (centres unmarked) [GT-04200, 3-(5-((6,7-dihydrothieno[3,2-c]pyridin-5(4H)-yl)methyl)-1-oxoisoindolin-2-yl)piperidine-2,6-dione]	A (0% ≤ substrate protein remaining % ≤ 80%)	B (80%< substrate protein remaining %≤ 100%)	A (0% ≤ substrate protein remaining % ≤ 80%)	A (0% ≤ substrate protein remaining % ≤ 80%)	B (80%< substrate protein remaining %≤ 100%)	B (80%< substrate protein remaining %≤ 100%)	500 to 1000	–	–	–	–	–	–
O=C1CCC(N2Cc3cc(CN4CCN(c5cccnn5)CC4)ccc3C2=O)C(=O)N1 (centres unmarked) [GT-04473, 3-(1-oxo-5-((4-(pyridazin-3-yl)piperazin-1-yl)methyl)isoindolin-2-yl)piperidine-2,6-dione]	A (0% ≤ substrate protein remaining % ≤ 80%)	A (0% ≤ substrate protein remaining % ≤ 80%)	B (80%< substrate protein remaining %≤ 100%)	B (80%< substrate protein remaining %≤ 100%)	B (80%< substrate protein remaining %≤ 100%)	A (0% ≤ substrate protein remaining % ≤ 80%)	500 to 1000	–	–	–	–	–	–
O=C1CCC(N2Cc3cc(CN4CCN(c5ncnc6sc7c(c56)CCCC7)CC4)ccc3C2=O)C(=O)N1 (centres unmarked) [GT-05209, 3-(1-oxo-5-((4-(5,6,7,8-tetrahydrobenzo[4,5]thieno[2,3-d]pyrimidin-4-yl)piperazin-1-yl)methyl)isoindolin-2-yl)piperidine-2,6-dione]	A (0% ≤ substrate protein remaining % ≤ 80%)	A (0% ≤ substrate protein remaining % ≤ 80%)	A (0% ≤ substrate protein remaining % ≤ 80%)	A (0% ≤ substrate protein remaining % ≤ 80%)	B (80%< substrate protein remaining %≤ 100%)	B (80%< substrate protein remaining %≤ 100%)	< 500	–	–	–	–	–	–
O=C1CCC(N2Cc3cc(CN4CCN(c5c(F)cncc5Cl)CC4)ccc3C2=O)C(=O)N1 (centres unmarked) [GT-04611, 3-(5-((4-(3-chloro-5-fluoropyridin-4-yl)piperazin-1-yl)methyl)-1-oxoisoindolin-2-yl)piperidine-2,6-dione]	A (0% ≤ substrate protein remaining % ≤ 80%)	B (80%< substrate protein remaining %≤ 100%)	B (80%< substrate protein remaining %≤ 100%)	B (80%< substrate protein remaining %≤ 100%)	B (80%< substrate protein remaining %≤ 100%)	A (0% ≤ substrate protein remaining % ≤ 80%)	500 to 1000	–	–	–	–	–	–
O=C1CCC(N2Cc3cc(CN4CCN(c5ncnc6sc7c(c56)CCC7)CC4)ccc3C2=O)C(=O)N1 (centres unmarked) [GT-04996, 3-(5-((4-(6,7-dihydro-5H-cyclopenta[4,5]thieno[2,3-d]pyrimidin-4-yl)piperazin-1-yl)methyl)-1-oxoisoindolin-2-yl)piperidine-2,6-dione]	A (0% ≤ substrate protein remaining % ≤ 80%)	A (0% ≤ substrate protein remaining % ≤ 80%)	A (0% ≤ substrate protein remaining % ≤ 80%)	A (0% ≤ substrate protein remaining % ≤ 80%)	A (0% ≤ substrate protein remaining % ≤ 80%)	A (0% ≤ substrate protein remaining % ≤ 80%)	< 500	–	–	–	–	–	–
